Results: patent publication US20220071210A1, “FUNGICIDAL MIXTURE” (Adama Makhteshim Ltd., priority 2018, published 2022)

Test system: Ramularia collo-cygni
Assay: Fungicidal control of Ramularia collo-cygni on winter barley (spray treatments, alone and tank mix)
Assay type: in vivo
Settings: sprayed twice 14 days apart, rate (gr A.I./ha) as in table; for % control observed, 38 Days after 2nd application: untreated severity 85.6%; for % control observed, 44 Days after 2nd application: untreated severity 100%
Protocol: An experiment was conducted to evaluate the fungicidal control of Ramularia collo-cygni on winter barley with a dehydrogenase inhibitor fungicide (fluxapyroxad), and folpet, alone, and in binary mixtures.
The experiments were conducted by applying a commercially available composition of fluxapyroxad (Imtrex®) and folpet (MCW-296 SC) alone or together. The compositions were diluted with water to the stated concentration of the active compound.
The following active ingredients and their mixtures were evaluated: • Fluxapyroxad 90 gr (A.I.)/ha • Folpet 750 gr (A.I.)/ha • Fluxapyroxad+Folpet 90 gr (A.I.)/ha+750 gr (A.I.)/ha
To test for fungicidal control of Ramularia collo-cygni, the winter barley was sprayed with each of the above treatments. Each of the above treatments were applied twice, the 2nd treatment occurring 14 days after the first treatment. The treatments were composed of 4 replicates.
Evaluations were performed at 38 days and 44 days after the second treatment. At these times the severity of the Ramularia collo-cygni was determined. At the time of the 1st evaluation (38 days after the second treatment) the severity of the infection of Ramularia collo-cygni on the winter barley was 85.6%. At the time of the 2nd evaluation (44 days after the second treatment) the severity was 100%.
The visually determined percentages of infected leaf areas may be converted into efficacies in % of the untreated control:
The efficacy (E) is calculated as follows using Abbott's formula: […]
A corresponds to the fungicidal infection of the treated plants in % and B corresponds to the fungicidal infection of the untreated (control) plants in %.
An efficacy of 0 means that the infection level of the treated plants corresponds to that of the untreated control plants; an efficacy of 100 means that the treated plants are not infected.
In the field of agriculture, it is often understood that the term “synergy” is as defined by Colby S. R. in an article entitled “Calculation of the synergistic and antagonistic responses of herbicide combinations” published in the journal Weeds, 1967, 15, p. 20-22. The action expected for a given combination of two active components can be calculated as follows: […]
in which E represents the expected percentage of fungicidal control for the combination of the two fungicides at defined doses (for example equal to x and y respectively), X is the percentage of fungicidal control observed by the compound (I) at a defined dose (equal to x), Y is the percentage of fungicidal control observed by the compound (II) at a defined dose (equal to y). When the percentage of fungicidal control observed for the combination is greater than the expected percentage, there is a synergistic effect.

SMILES | % control observed, 38 Days after 2nd application | % control observed, 44 Days after 2nd application
O=C1c2ccccc2C(=O)N1SC(Cl)(Cl)Cl [Folpet, folpet] | 30.3% | 9.7%
Cn1cc(C(=O)Nc2ccccc2-c2cc(F)c(F)c(F)c2)c(C(F)F)n1 [Fluxapyroxad, fluxapyroxad] | 47.1% | 12.2%
